Results reported in patent US8673938B2, “Chemical compounds” (priority 2006, dated 2014).

The molecules below were run against human 11βHSD1 enzyme (Homo sapiens (Human), UniProt P28845) (assay: biochemical). Conditions: read-out: % inhibition of human 11-βHSD.
Sequence of human 11βHSD1 enzyme (P28845 whole entry): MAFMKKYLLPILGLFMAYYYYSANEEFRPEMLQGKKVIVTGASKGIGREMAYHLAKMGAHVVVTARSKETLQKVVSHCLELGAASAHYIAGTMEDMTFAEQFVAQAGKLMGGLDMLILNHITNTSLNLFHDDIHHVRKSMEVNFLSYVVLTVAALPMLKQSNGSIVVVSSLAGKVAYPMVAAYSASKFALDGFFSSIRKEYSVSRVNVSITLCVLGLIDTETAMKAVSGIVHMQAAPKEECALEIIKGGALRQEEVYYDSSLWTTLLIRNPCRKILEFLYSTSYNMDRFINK
Procedure: The evaluation of compounds described herein was carried out using a baculovirus expressed N terminal 6-His tagged full length human 11βHSD1 enzyme(*1). […] Inhibitors of 11βHSD1 reduce the conversion of cortisone to cortisol, which is identified by an increase in signal, in the above assay.
Compounds to be tested were dissolved in dimethyl sulphoxide (DMSO) to 10 mM and diluted further in assay buffer containing 1% DMSO to 10 fold the final assay concentration. Diluted compounds were then plated into black 384 well plates (Matrix, Hudson N.H., USA).
The assay plates were incubated for 25 minutes at 37° C. after which time the reaction was stopped by the addition of 10 μl of 0.5 mM glycerrhetinic acid plus conjugated cortisol (XL665 or D2). 10 μl of anti-cortisol Cryptate was then added and the plates sealed and incubated for 6 hours at room temperature.

| SMILES | inhibition at 30 µM [%] |
| --- | --- |
| CCCSc1nc(N2CC[C@H](CC(=O)O)C2)ccc1C(=O)N[C@H]1C2CC3CC1C[C@](OC(F)F)(C3)C2 [Example 184, 2-[(3R)-1-[5-[[(2r,5s)-5-(difluoromethoxy)-2-adamantyl]carbamoyl]-6-propylsulfanyl-pyridin-2-yl]pyrrolidin-3-yl]acetic acid] | 94 |
| CCCSc1nc(N2CCC(C(=O)O)C2)ccc1C(=O)N[C@H]1C2CC3CC1C[C@](OC(F)F)(C3)C2 (stereo partly drawn) [Example 185, 1-[5-[[(2r,5S)-5-(difluoromethoxy)-2-adamantyl]carbamoyl]-6-propylsulfanyl-pyridin-2-yl]pyrrolidine-3-carboxylic acid] | 97 |
| CCCSc1nc(N2CCC[C@@H](CC(=O)O)C2)c(F)cc1C(=O)NC1CCCCC1 [Example 186, (S)-2-(1-(5-(Cyclohexylcarbamoyl)-3-fluoro-6-(propylthio)pyridin-2-yl)piperidin-3-yl)acetic acid] | 104 |
| CCCSc1nc(N2CCC[C@H](CC(=O)O)C2)c(F)cc1C(=O)NC1CCCCC1 [Example 187, (R)-2-(1-(5-(Cyclohexylcarbamoyl)-3-fluoro-6-(propylthio)pyridin-2-yl)piperidin-3-yl)acetic acid] | 90 |
| O=C(O)C[C@@H]1CCCN(c2ccc(C(=O)NC3CCCCC3)c(SCCc3cccnc3)n2)C1 [compound 131, 2-[(3S)-1-[5-(cyclohexyl-carbamoyl)-6-(2-pyridin-3-ylethylsulfanyl)pyridin-2-yl]-3-piperidyl] acetic acid] | 91 |
| O=C(O)C[C@@H]1CCCN(c2ccc(C(=O)NC3CCCCC3)c(SCCc3cnccn3)n2)C1 [compound 132, 2-[(3S)-1-[5-(cyclohexyl-carbamoyl)-6-(2-pyrazin-2-ylethylsulfanyl)pyridin-2-yl]-3-piperidyl] acetic acid] | 98 |
| O=C(O)C[C@@H]1CCCN(c2ccc(C(=O)NC3CCCCC3)c(OCCc3ccc(F)cc3)n2)C1 [compound 135, 2-[(3S)-1-[5-(cyclohexyl-carbamoyl)-6-[2-(4-fluorophenyl)ethoxy]pyridin-2-yl]-3-piperidyl] acetic acid] | 92 |
| O=C(O)C[C@@H]1CCCN(c2ccc(C(=O)NC3CCCCC3)c(OCCCc3ccccc3)n2)C1 [compound 137, 2-[(3S)-1-[5-(cyclohexyl-carbamoyl)-6-(3-phenylpropoxy)pyridin-2-yl]-3-piperidyl] acetic acid] | 99 |
| O=C(O)C[C@@H]1CCCN(c2ccc(C(=O)NC3CCCCC3)c(OCCc3cccnc3)n2)C1 [compound 138, 2-[(3S)-1-[5-(cyclohexyl-carbamoyl)-6-(2-pyridin-3-ylethoxy)pyridin-2-yl]-3-piperidyl] acetic acid] | 98 |
| COc1nc(N2CCC[C@@H](CC(=O)O)C2)ccc1C(=O)NC1CCCCC1 [compound 139, 2-[(3S)-1-[5-(cyclohexyl-carbamoyl)-6-methoxy-pyridin-2-yl]-3-piperidyl] acetic acid] | 89 |
| O=C(O)C[C@@H]1CCCN(c2ccc(C(=O)NC3CCCCC3)c(N3CCCCC3)n2)C1 [compound 141, 2-[(3S)-1-[5-(cyclohexylcarbamoyl)-6-(1-piperidyl)pyridin-2-yl]-3-piperidyl]acetic acid] | 96 |
| O=C(O)C[C@@H]1CCCN(c2ccc(C(=O)NC3CCCCC3)c(NCCc3ccc(Cl)cc3)n2)C1 [compound 142, 2-[(3S)-1-[6-[2-(4-chlorophenyl)ethylamino]-5-(cyclohexylcarbamoyl)pyridin-2-yl]-3-piperidyl]acetic acid] | 94 |
| O=C(O)C[C@@H]1CCCN(c2ccc(C(=O)NC3CCCCC3)c(N3CCC(c4ccc(F)cc4)C3)n2)C1 (stereo partly drawn) [compound 143, 2-[(3S)-1-[5-(cyclohexylcarbamoyl)-6-[3-(4-fluorophenyl)pyrrolidin-1-yl]pyridin-2-yl]-3-piperidyl]acetic acid] | 95 |
| O=C(O)C[C@@H]1CCCN(c2ccc(C(=O)NC3CCCCC3)c(N3CCc4ccccc4C3)n2)C1 [compound 144, 2-[(3S)-1-[5-(cyclohexylcarbamoyl)-6-(3,4-dihydro-1H-isoquinolin-2-yl)pyridin-2-yl]-3-piperidyl]acetic acid] | 93 |
| O=C(O)C[C@@H]1CCCN(c2ccc(C(=O)NC3CCCCC3)c(N3CCN(c4ccccc4)CC3)n2)C1 [compound 145, 2-[(3S)-1-[5-(cyclohexylcarbamoyl)-6-(4-phenylpiperazin-1-yl)pyridin-2-yl]-3-piperidyl]acetic acid] | 84 |
| O=C(O)C[C@@H]1CCCN(c2ccc(C(=O)NC3CCCCC3)c(N3CCN(C(=O)c4ccc(F)cc4)CC3)n2)C1 [compound 146, 2-[(3S)-1-[5-(cyclohexyl-carbamoyl)-6-[4-(4-fluorobenzoyl)piperazin-1-yl]pyridin-2-yl]-3-piperidyl]acetic acid] | 58 |
| CC(=O)N1CCN(c2nc(N3CCC[C@@H](CC(=O)O)C3)ccc2C(=O)NC2CCCCC2)CC1 [compound 147, 2-[(3S)-1-[6-(4-acetylpiperazin-1-yl)-5-(cyclohexylcarbamoyl)pyridin-2-yl]-3-piperidyl]acetic acid] | 86 |
| CCS(=O)(=O)N1CCN(c2nc(N3CCC[C@@H](CC(=O)O)C3)ccc2C(=O)NC2CCCCC2)CC1 [compound 148, 2-[(3S)-1-[5-(cyclohexyl-carbamoyl)-6-(4-ethylsulfonyl-piperazin-1-yl)pyridin-2-yl]-3-piperidyl]acetic acid] | 56 |
| O=C(O)C[C@@H]1CCCN(c2ccc(C(=O)NC3CCCCC3)c(N3CCN(S(=O)(=O)c4ccccc4)CC3)n2)C1 [compound 149, 2-[(3S)-1-[6-[4-(benzenesulfonyl)piperazin-1-yl]-5-(cyclohexyl-carbamoyl)pyridin-2-yl]-3-piperidyl]acetic acid] | 83 |
| O=C(O)C[C@@H]1CCCN(c2ccc(C(=O)NC3CCCCC3)c(N3CCN(C(=O)OCc4ccccc4)CC3)n2)C1 [compound 150, 2-[(3S)-1-[5-(cyclohexylcarbamoyl)-6-(4-phenylmethoxy-carbonylpiperazin-1-yl)pyridin-2-yl]-3-piperidyl]acetic acid] | 74 |
| O=C(O)C[C@@H]1CCCN(c2ccc(C(=O)NC3CCCCC3)c(NCCc3ccccc3)n2)C1 [compound 152, 2-[(3S)-1-[5-(cyclohexylcarbamoyl)-6-(phenethylamino)pyridin-2-yl]-3-piperidyl]acetic acid] | 81 |
| CN(CCc1ccccc1)c1nc(N2CCC[C@@H](CC(=O)O)C2)ccc1C(=O)NC1CCCCC1 [compound 153, 2-[(3S)-1-[5-(cyclohexylcarbamoyl)-6-(methyl-phenethyl-amino)pyridin-2-yl]-3-piperidyl]acetic acid] | 92 |
| CCCNc1nc(N2CCC[C@@H](CC(=O)O)C2)ccc1C(=O)N(C)C1CCCCC1 [compound 157, 2-[(3S)-1-[5-(cyclohexyl-methyl-carbamoyl)-6-propylamino-pyridin-2-yl]-3-piperidyl]acetic acid] | 91 |
| CCCSc1nc(N2CCC[C@@H](CC(=O)O)C2)ccc1C(=O)N(C)C1CCCCC1 [compound 169, 2-[(3S)-1-[5-(cyclohexyl-methyl-carbamoyl)-6-propylsulfanyl-pyridin-2-yl]-3-piperidyl]acetic acid] | 100 |
